Values quoted from earlier work in patent publication US20090148502A1, “COMPOSITIONS AND METHODS FOR TREATING LACERATIONS, ABRASIONS, AVULSIONS, BURNS, ULCERS, AND CASES OF EXCESSIVE BLEEDING” (Hemo Nanoscience, LLC, priority 2006, published 2009).

Legend:
[1] = in vivo
wound = conditions: 0.04% (wt/wt), topically applied

CCCCN1CCCCC1C(=O)Nc1c(C)cccc1C (centres unmarked) [bupivacaine]
duration of action [1]: 6 to 8 h

Human EGF: human epidermal growth factor
effect on healing time (wound): successful in reducing the healing time
